Consider ten molecules from US20150274719A1, “AMINO-SUBSTITUTED IMIDAZO[1,2-A]PYRIDINECARBOXAMIDES AND THEIR USE” (BAYER PHARMA AKTIENGESELLSCHAFT, priority 2012, published 2015).

Structures can show the parent of a compound that is named as a salt. Where two headings read alike, the source gives them in different places.

In series [1] the target is T1, recombinant guanylate cyclase reporter cell line (Rattus norvegicus, UniProt P19686+P20595).
T1 construct: expressed in transfected cells; host or cells: recombinant reporter cell line
T1 sequence (P19686 1-690): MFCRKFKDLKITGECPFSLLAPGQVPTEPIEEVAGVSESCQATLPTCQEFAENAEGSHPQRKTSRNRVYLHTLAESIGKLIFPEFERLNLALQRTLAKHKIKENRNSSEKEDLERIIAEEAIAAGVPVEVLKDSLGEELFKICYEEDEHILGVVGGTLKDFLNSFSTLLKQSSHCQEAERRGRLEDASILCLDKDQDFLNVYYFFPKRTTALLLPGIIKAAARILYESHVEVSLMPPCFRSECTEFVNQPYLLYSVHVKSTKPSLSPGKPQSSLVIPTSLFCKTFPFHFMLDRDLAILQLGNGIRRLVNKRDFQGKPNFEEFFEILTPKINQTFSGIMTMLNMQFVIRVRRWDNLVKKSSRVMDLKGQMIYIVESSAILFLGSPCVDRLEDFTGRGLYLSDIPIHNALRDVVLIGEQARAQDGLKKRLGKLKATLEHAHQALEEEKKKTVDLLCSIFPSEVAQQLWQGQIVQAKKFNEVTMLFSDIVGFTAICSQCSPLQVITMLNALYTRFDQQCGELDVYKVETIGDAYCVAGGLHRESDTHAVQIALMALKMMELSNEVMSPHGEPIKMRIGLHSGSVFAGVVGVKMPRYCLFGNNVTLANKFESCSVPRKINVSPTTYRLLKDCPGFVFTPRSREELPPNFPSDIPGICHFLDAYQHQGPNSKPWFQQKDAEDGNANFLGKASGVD
T1 sequence (P20595 1-619): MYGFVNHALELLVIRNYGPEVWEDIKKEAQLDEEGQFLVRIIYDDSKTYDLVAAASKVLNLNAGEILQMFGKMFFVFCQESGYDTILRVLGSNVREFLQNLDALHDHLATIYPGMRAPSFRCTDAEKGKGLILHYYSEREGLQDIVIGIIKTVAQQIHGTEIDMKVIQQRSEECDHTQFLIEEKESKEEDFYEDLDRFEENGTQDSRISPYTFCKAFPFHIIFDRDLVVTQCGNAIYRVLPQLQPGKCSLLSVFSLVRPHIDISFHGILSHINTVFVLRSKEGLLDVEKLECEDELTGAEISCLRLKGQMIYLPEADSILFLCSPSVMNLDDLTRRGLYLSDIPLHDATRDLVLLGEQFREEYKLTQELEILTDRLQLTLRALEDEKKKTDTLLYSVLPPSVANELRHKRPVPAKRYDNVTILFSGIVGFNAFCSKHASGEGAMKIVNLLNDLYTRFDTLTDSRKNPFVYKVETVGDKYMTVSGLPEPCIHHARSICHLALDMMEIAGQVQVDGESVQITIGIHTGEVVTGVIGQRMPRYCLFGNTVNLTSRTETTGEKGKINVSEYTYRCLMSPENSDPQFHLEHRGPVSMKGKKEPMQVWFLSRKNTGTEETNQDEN
The series is described as follows: Action on recombinant guanylate cyclase reporter cell line. The series is classed as cell-based. The settings on record: in some cases mean values from individual determinations. The method in brief:
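Compounds are tested on whole cells carrying a guanylate cyclase reporter construct. The lowest concentration giving an effect is recorded as the MEC.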

Series [2] can be described thus: Determination of pharmacokinetic parameters following intravenous and oral administration (rats). The series is classed as in vivo, male Wistar rats. The settings on record: intravenous administration in rats. How it is done:
B-6. Determination of Pharmacokinetic Parameters Following Intravenous and Oral Administration
The pharmacokinetic parameters of the compounds according to the invention are determined in male CD-1 mice, male Wistar rats and female beagles. Intravenous administration in the case of mice and rats is carried out by means of a species-specific plasma/DMSO formulation, and in the case of dogs by means of a water/PEG400/ethanol formulation. In all species, oral administration of the dissolved substance is performed via gavage, based on a water/PEG400/ethanol formulation. The taking of blood from rats is simplified by inserting a silicone catheter into the right Vena jugularis externa prior to substance administration. The operation is carried out at least one day prior to the experiment with […] and administration of an analgesic (atropin/Rimadyl (3/1) 0.1 ml s.c.). The blood is taken (generally more than 10 time points) within a time window including terminal time points of at least 24 to a maximum of 72 hours after substance administration. When the blood is taken, it is passed into heparinised tubes. Then the blood plasma is obtained by centrifugation and is optionally stored at −20° C. until further processing.
An internal standard (which may also be a chemically unrelated substance) is added to the samples of the compounds according to the invention, calibration samples and qualifiers, and there follows protein precipitation by means of excess acetone. Addition of a buffer solution matched to the LC conditions, and subsequent vortexing, is followed by centrifugation at 1000 g. The supernatant is analysed by LC-MS/MS using C18 reversed-phase columns and variable mobile phase mixtures. The substances are quantified via the peak heights or areas from extracted ion chromatograms of specific selected ion monitoring experiments.
The plasma concentration/time plots determined are used to calculate the pharmacokinetic parameters such as AUC, Cmax, t1/2 (terminal half life), F (bioavailability), MRT (mean residence time) and CL (clearance), using a validated pharmacokinetic calculation program.
Since the substance quantification is carried out in plasma, it is necessary to determine the blood/plasma distribution of the substance in order to be able to adjust the pharmacokinetic parameters correspondingly. For this purpose, a defined amount of substance is incubated in heparinized whole blood of the species in question in a rocking roller mixture for 20 min. After centrifugation at 1000 g, the plasma concentration is measured (by means of LC-MS/MS; see above) and determined by calculating the ratio of the Cblood/Cplasma value.

Setting [3] is: male, Wistar, rat, plasma, iv, read-out: MRT.

The MRT is the average time that molecules of a dose stay in the body. As for `Cc1cc(OCc2c(F)ccc(F)c2F)c2nc(C)c(C(=O)NCC(C)(N)CCC(F)(F)F)n2c1` (single isomer, unassigned) [Example 411, ent-N-(2-amino-5,5,5-trifluoro-2-methylpentyl)-2,6-dimethyl-8-[(2,3,6-trifluorobenzyl)oxy]imidazo[1,2-a]pyridine-3-carboxamide], the “MEC (minimal effective concentration)” value in series [1] was determined as 0.03 µM. In series [2], this molecule returned an AUCnorm of 0.41 kg·h/L, a CLblood of 25.3 mL/min/kg, an MRT of 11.2 h and a t1/2 of 8.2 h.
One may read the half-life as the time in which the quantity being followed falls by half. Higher therefore signals slow loss. With `CCC(C)(N)CNC(=O)c1c(C)nc2c(OCc3c(F)ccc(F)c3F)cc(C)cn12` (single isomer, unassigned; enantiomer a) [Example 274, ent-N-(2-Amino-2-methylbutyl)-2,6-dimethyl-8-[(2,3,6-trifluorobenzyl)oxy]imidazo[1,2-a]-pyridine-3-carboxamide (Enantiomer A)], the “MEC (minimal effective concentration)” value in series [1] is 0.10 µM. In series [2], this molecule came in with an AUCnorm of 1.29 kg·h/L and a CLblood of 11.5 mL/min/kg. Moreover, the half-life in series [2] (male, Wistar, rat, plasma, iv) is 5.8 h. Besides, in series [2] (setting [3]), the MRT turned out to be 8.4 h.
`CCC(C)(N)CNC(=O)c1c(C)nc2c(OCc3c(F)cccc3F)cc(OC)cn12` (single isomer, unassigned; enantiomer a) [Example 279, ent-N-(2-amino-2-methylbutyl)-8-[(2,6-difluorobenzyl)oxy]-6-methoxy-2-methylimidazo[1,2-a]pyridine-3-carboxamide (Enantiomer A)]: the “MEC (minimal effective concentration)” value in series [1] was 0.3 µM. In series [2], this molecule returned an AUCnorm of 0.42 kg·h/L and a CLblood of 46 mL/min/kg. In series [2] (male, Wistar, rat, plasma, iv), this molecule gave a half-life of 2.3 h. Besides, in series [2] (setting [3]), the MRT came out at 2.9 h.
For `Cc1cc(OCc2c(F)cccc2F)c2nc(C)c(C(=O)NCC(C)(N)CF)n2c1` (single isomer, unassigned; enantiomer a) [Example 283, ent-N-(2-amino-3-fluoro-2-methylpropyl)-8-[(2,6-difluorobenzyl)oxy]-2,6-dimethylimidazo[1,2-a]pyridine-3-carboxamide (Enantiomer A)], in that order: 0.3 µM, 0.67 kg·h/L, 14.5 mL/min/kg, 3.1 h and 3.9 h.
`Cc1cc(OCc2c(F)ccc(F)c2F)c2nc(C)c(C(=O)NCC(C)(N)CF)n2c1` (single isomer, unassigned; enantiomer a) [Example 285, ent-N-(2-amino-3-fluoro-2-methylpropyl)-2,6-dimethyl-8-[(2,3,6-trifluorobenzyl)oxy]imidazo[1,2-a]pyridine-3-carboxamide (Enantiomer A)]: in series [1], the “MEC (minimal effective concentration)” value came out at 0.3 µM. In addition, in series [2], the AUCnorm was found to be 0.54 kg·h/L and the CLblood turned out to be 17 mL/min/kg. Also, the half-life in series [2] (male, Wistar, rat, plasma, iv) is 3.6 h. Further, the MRT in series [2] (setting [3]) turned out to be 4.4 h.
Consider `CCC(C)(N)CNC(=O)c1c(C)nc2c(OCc3c(F)cccc3F)cc(C(F)F)cn12` (single isomer, unassigned; enantiomer a) [Example 287, ent-N-(2-amino-2-methylbutyl)-8-[(2,6-difluorobenzyl)oxy]-6-(difluoromethyl)-2-methylimidazo[1,2-a]pyridine-3-carboxamide Formate (Enantiomer A)], for which the “MEC (minimal effective concentration)” value in series [1] amounted to 0.3 µM. In addition, in series [2], the AUCnorm came out at 0.66 kg·h/L and the CLblood was 29.3 mL/min/kg. This molecule showed a half-life in series [2] (male, Wistar, rat, plasma, iv) of 5.4 h. For the same molecule, in series [2] (setting [3]), the MRT came out at 8.4 h.
For `Cc1nc2c(OCc3c(F)cccc3F)cc(C(F)F)cn2c1C(=O)NCC(C)(N)CF` (single isomer, unassigned; enantiomer a) [Example 291, ent-N-(2-amino-3-fluoro-2-methylpropyl)-8-[(2,6-difluorobenzyl)oxy]-6-(difluoromethyl)-2-methylimidazo[1,2-a]pyridine-3-carboxamide (Enantiomer A)], in that order: 1.0 µM, 0.87 kg·h/L, 14 mL/min/kg, 4.8 h and 5.7 h.
For `Cc1nc2c(OCc3c(F)cccc3F)cccn2c1C(=O)NC(CN)c1ccc(F)cc1` (single isomer, unassigned; enantiomer b) [Example 10, ent-N-[2-Amino-1-(4-fluorophenyl)ethyl]-8-[(2,6-difluorobenzyl)oxy]-2-methylimidazo[1,2-a]-pyridine-3-carboxamide (Enantiomer B)], in that order: 0.30 µM, 2.26 kg·h/L, 12.3 mL/min/kg, 4.8 h and 6.9 h.
For `Cc1cc(OCc2c(F)cccc2F)c2nc(C)c(C(=O)NCC(C)(N)C3CC3)n2c1` (single isomer, unassigned; enantiomer b) [Example 261, ent-N-(2-Amino-2-cyclopropylpropyl)-8-[(2,6-difluorobenzyl)oxy]-2,6-dimethylimidazo[1,2-a]-pyridine-3-carboxamide (Enantiomer B)], in that order: 0.10 µM, 0.47 kg·h/L, 38.2 mL/min/kg, 3.7 h and 4.7 h.
On to `CCC(C)(N)CNC(=O)c1c(C)nc2c(OCc3c(F)ccc(F)c3F)cc(C)cn12` (single isomer, unassigned; enantiomer b) [Example 275, ent-N-(2-Amino-2-methylbutyl)-2,6-dimethyl-8-[(2,3,6-trifluorobenzyl)oxy]imidazo[1,2-a]-pyridine-3-carboxamide (Enantiomer B)], for which, in series [1], the “MEC (minimal effective concentration)” value is 0.10 µM. In series [2], this molecule had an AUCnorm of 0.64 kg·h/L, a CLblood of 20.8 mL/min/kg, an MRT of 7.2 h and a t1/2 of 4.1 h.
